Test results as given in PMC9329436, “Optimization of the 4-anilinoquin(az)oline scaffold as epidermal growth factor receptor (EGFR) inhibitors for chordoma utilizing a toxicology profiling assay platform” (Scientific Reports, 2022).
Like-named read-outs stand apart in the source and are kept apart here.

Legend:
U-CH1 chordoma cell line [1] = settings: previously reported, Figure 1; cited from earlier work
HL60 cells = assay: AsedaSciences SYSTEMETRIC Cell Health Screen (flow cytometry toxicity profiling); settings: HL60, 4 h, 5 nM–100 µM; for CC: Cell Cycle score / CM: Cell morphology score / CMI: Cell membrane integrity score / GSH: Glutathione score / MMP: Mitochondrial membrane depolarization score / NMI1: Nuclear membrane integrity 1 score / NMI2: Nuclear membrane integrity 2 score / ROS: Reactive superoxide species score: probability 0–1, n = 2; for CHI: Cell Health Index: probability (0–1) of high-risk class, n = 2
Outline: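 HL60 cells (100,000 per well) exposed 4 h at 37 °C, 5% CO2 to 10-step 3× dilutions (5 nM–100 µM), in duplicate. Cells then stained with mitochondrial and cell-stress reporter dyes and read by ungated flow cytometry over twelve parameters. Cell Health Index and eight endpoint scores come from an ML classifier trained on 300 high/low-risk compounds.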

U-CH2 chordoma cell line [2] = settings: previously reported, Figure 1; cited from earlier work
U-CH1 chordoma cell line [3] = assay: Cell viability assay (alamarBlue, 72 h), U-CH1; type: cell-based, human; settings: n = 4, 72 h
Outline: (§1)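 Cells grown in 4:1 IMDM:RPMI with 10% FBS on gel-coated flasks, dosed in quadruplicate 24 h after seeding in 384-well plates.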

U-CH2 chordoma cell line [4] = assay: Cell viability assay (alamarBlue, 72 h), U-CH2; type: cell-based, human
Outline: as §1

[5] = system: U-CH7 patient-derived chordoma cell line; assay: Cell viability assay (alamarBlue, 72 h), U-CH7; type: cell-based, human; settings: n = 4, 72 h
Experimental: (§2) Chordoma cell lines were cultured as described previously[10],[12],[33],[34]. Briefly, U-CH1 and U-CH2 cell lines were cultured in 4:1 IMDM:RPMI medium supplemented with 10% fetal bovine serum (FBS) and 1% penicillin/streptomycin in gel-coated flasks. […] CH22, UM-Chor1, U-CH12, and U-CH7 cell lines were cultured in RPMI medium supplemented with 10% FBS and 1% penicillin/streptomycin. The cell lines all undergo regular mycoplasma screening.
(§3) Cells were seeded in 384 well plates and were treated with test compound in quadruplicate 24 h after plating. Cell viability was assessed at 72 h using alamarBlue (ThermoFisher, USA). […] IC50 values were determined by four-parameter nonlinear regression analyses using GraphPad Prism™ version 8 software (San Diego, CA).

EGFR = EGFR (Homo sapiens, UniProt P00533); assay: ProQinase in-cell EGFR assay (EGFR phosphorylation in A431 cells); type: cell-based; design: This cell line endogenously expresses a high level of EGFR; endogenous in cells; host or cells: A431
EGFR, sequence (P00533 25-1210): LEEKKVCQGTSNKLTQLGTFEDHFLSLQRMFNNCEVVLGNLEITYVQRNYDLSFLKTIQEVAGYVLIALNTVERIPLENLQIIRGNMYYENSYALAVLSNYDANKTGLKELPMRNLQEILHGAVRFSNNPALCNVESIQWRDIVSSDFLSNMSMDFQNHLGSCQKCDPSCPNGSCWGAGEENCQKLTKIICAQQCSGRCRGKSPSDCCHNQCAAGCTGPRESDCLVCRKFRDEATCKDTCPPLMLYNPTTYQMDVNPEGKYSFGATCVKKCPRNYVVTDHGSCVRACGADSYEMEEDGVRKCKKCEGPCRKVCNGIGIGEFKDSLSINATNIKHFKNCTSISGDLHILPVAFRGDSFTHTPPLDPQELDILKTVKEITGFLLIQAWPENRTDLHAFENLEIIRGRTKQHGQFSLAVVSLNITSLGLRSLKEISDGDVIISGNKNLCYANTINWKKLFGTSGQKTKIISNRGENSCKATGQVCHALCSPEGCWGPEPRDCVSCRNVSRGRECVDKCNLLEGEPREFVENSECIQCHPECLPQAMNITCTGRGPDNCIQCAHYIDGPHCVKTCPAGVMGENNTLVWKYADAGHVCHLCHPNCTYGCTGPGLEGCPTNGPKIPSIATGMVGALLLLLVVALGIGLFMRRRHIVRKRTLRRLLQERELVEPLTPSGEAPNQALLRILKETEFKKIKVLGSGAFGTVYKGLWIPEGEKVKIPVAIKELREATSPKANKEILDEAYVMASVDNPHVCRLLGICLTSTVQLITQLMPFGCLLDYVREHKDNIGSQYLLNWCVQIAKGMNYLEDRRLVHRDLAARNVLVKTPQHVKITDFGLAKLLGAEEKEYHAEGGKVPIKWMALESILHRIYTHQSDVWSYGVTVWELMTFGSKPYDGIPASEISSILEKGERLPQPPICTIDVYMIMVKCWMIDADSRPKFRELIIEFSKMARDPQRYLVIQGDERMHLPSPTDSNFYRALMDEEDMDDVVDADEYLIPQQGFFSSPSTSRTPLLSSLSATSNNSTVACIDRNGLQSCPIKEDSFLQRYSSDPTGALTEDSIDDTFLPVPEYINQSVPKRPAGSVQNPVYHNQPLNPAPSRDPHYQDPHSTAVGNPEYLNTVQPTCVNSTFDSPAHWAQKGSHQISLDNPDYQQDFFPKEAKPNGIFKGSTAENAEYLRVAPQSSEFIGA
Source text: In addition, we ran an EGFR in-cell target engagement assay, measuring in-cell EGFR phosphorylation, using the human epidermoid carcinoma cell line A431. This cell line endogenously expresses a high level of EGFR, and stimulation of these cells with human epidermal growth factor (EGF) results in receptor tyrosine autophosphorylation.

[6] = system: U-CH12 patient-derived chordoma cell line; assay: Cell viability assay (alamarBlue, 72 h), U-CH12; type: cell-based, human; settings: n = 4, 72 h
Experimental: as §2, §3

[7] = system: WS1 human fibroblast cell line; assay: Cell viability assay, WS1 toxicity control; type: cell-based; settings: n = 4, nonspecific toxicity control
Experimental: as §3

[8] = system: UM-Chor1 patient-derived chordoma cell line; assay: Cell viability assay (alamarBlue, 72 h), UM-Chor1; type: cell-based, human; settings: n = 4, 72 h
Experimental: as §2, §3

[9] = system: CH22 patient-derived chordoma cell line; assay: Cell viability assay (alamarBlue, 72 h), CH22; type: cell-based, human; settings: n = 4, 72 h
Experimental: as §2, §3

[10] = ProQinase in-cell EGFR assay, A431 cells, n = 1

Row | IC50 (EGFR; [10]) | Structure (SMILES) | IC50 (U-CH1 chordoma cell line [1]) | CC: Cell Cycle score (HL60 cells) | CM: Cell morphology score (HL60 cells) | CMI: Cell membrane integrity score (HL60 cells) | GSH: Glutathione score (HL60 cells) | MMP: Mitochondrial membrane depolarization score (HL60 cells) | NMI1: Nuclear membrane integrity 1 score (HL60 cells) | NMI2: Nuclear membrane integrity 2 score (HL60 cells) | ROS: Reactive superoxide species score (HL60 cells) | CHI: Cell Health Index (HL60 cells) | IC50 (U-CH2 chordoma cell line [2]) | IC50 (U-CH1 chordoma cell line [3]) | IC50 (U-CH2 chordoma cell line [4]; n = 4, 72 h) | IC50 [5] | IC50 [6] | IC50 [7] | IC50 [8] | IC50 [9] | other results
1 |  | CN(C)C/C=C/C(=O)Nc1cc2c(Nc3ccc(F)c(Cl)c3)ncnc2cc1O[C@H]1CCOC1 [Afatinib, reference compound] | 0.1 µM | 0.93 | 1.00 | 1.00 | 1.00 | 1.00 | 1.00 | 0.99 | 1.00 | 0.92 | 6.4 µM |  |  |  |  |  |  |  | 
2 | 0.019 µM | C#Cc1cccc(Nc2ncnc3cc(OC)c(OC)cc23)c1 [Compound 1, N-(3-ethynylphenyl)-6,7-dimethoxyquinazolin-4-amine] | 0.92 µM | 0.086 | 0.85 | 0.11 | 0.18 | 0.39 | 0.47 | 0.41 | 0.32 | 0.41 | > 50 µM | 0.63 µM |  |  |  |  |  |  | IC50 (U-CH1 chordoma cell line [3]; Homo sapiens, UCH1, 72 h): < 1 µM; IC50 (U-CH2 chordoma cell line [4]; Homo sapiens, UCH2, n = 4, 72 h): 66 µM; IC50 ([5]; Homo sapiens): 23 µM; IC50 ([6]; Homo sapiens): > 100 µM; IC50 ([7]; Homo sapiens, Fibroblast): 15 µM; IC50 ([8]; Homo sapiens): 28 µM; IC50 ([9]; Homo sapiens): > 100 µM
3 | 0.06 µM | C#Cc1cccc(Nc2ncnc3cc(OC)c(OC)cc23)c1F [Compound 43] |  | 0.059 | 0.0093 | 0.56 | 0.38 | 0.28 | 0.10 | 0.59 | 0.024 | 0.33 |  | 2 µM | 7.1 µM | 57 µM | > 100 µM | 12 µM | > 100 µM | 5.8 µM | 
4 | 0.03 µM | C#Cc1cc(Nc2ncnc3cc(OC)c(OC)cc23)ccc1F [Compound 44] |  | 0.027 | 0.83 | 0.40 | 0.054 | 0.15 | 0.44 | 0.18 | 0.66 | 0.34 |  | > 100 µM | 22 µM | 0.68 µM | 0.87 µM | 0.33 µM | 7.2 µM | 0.3 µM | IC50 (EGFR; in-cell EGFR inhibition): < 0.1 µM
